# Data taken from US6063814A, “Phorbol esters as anti-neoplastic and white blood cell elevating agents” (priority 1997, dated 2000).
# Key:
# [1] = test system: HL-60 cells; test: Effect of TPA in a human promyelocytic leukemia cell line (HL-60); assay type: cell-based; conditions: 10, 20 or 100 ng/ml
# Method: 1. Effect of TPA in a Human Promyelocytic Leukemia Cell Line (HL-60):
# HL-60 cells at 2×10^6 cells/ml were treated with TPA. The final concentrations of TPA were 10, 20, or 100 ng/ml. The ethanol content was less than 0.01%.
# [2] = test system: cell cultures; conditions: Chemsyn product brochure; cited from earlier work
# [3] = test system: B16 tumor cells; test: Tumor growth inhibition in mice injected with B16 tumor cells; assay type: in vivo, C57 mice; conditions: statistically different from control
# Method: Effect of TPA in Mice Injected with B16 Tumor Cells:
# Four groups of C57 mice were used in the experiment. Each group contained 7 mice and one group was untreated. Each C57 mouse was injected with 0.2 ml of supernatant of a 1:6 w/v homogenate of B16 cells at the under-arm position. On the third day, each treatment group was given TPA i.p. at 50, 100 or 200 μg/kg/d for 8 days.
# [4] = test system: S180 (Sarcoma 180) tumor cells; test: Tumor growth inhibition in mice injected with S180 (Sarcoma 180) tumor cells; assay type: in vivo, Kwen-Ming mice
# Method: Effect of TPA in Mice Injected With S180 (Sarcoma 180) Tumor Cells:
# Eight groups of Kwen-Ming mice containing 7 mice per group were used in the following experiment. Two groups were untreated and six groups received the drug.
# Each Kwen-Ming mouse was injected with 5×10^6 S180 cells at the under-arm position. After 24 or 72 h, the animals were given TPA i.p. or locally at the tumor site. The injected doses of TPA were 50, 100 and 200 μg/kg/d for 7 days. The animals were sacrificed 24 hrs after the final TPA treatment and the tumors were weighed to calculate the extent of the tumor growth inhibition.
# [5] = test system: mouse skin; conditions: cited from earlier work
smiles,measurement,setting,value
"CCCCCCCCCCCCCC(=O)O[C@@H]1[C@@H](C)[C@@]2(O)[C@@H](C=C(CO)C[C@]3(O)C(=O)C(C)=C[C@@H]23)[C@@H]2C(C)(C)[C@]12OC(C)=O [TPA, Phorbol 12-Myristate-13-Acetate]",differentiation to macrophages,[1]; after 4-6 days,the majority of the cells were induced to differentiate to macrophages in a dose-dependent manner
same,cell aggregation and attachment,[1]; after 3 hours,cell aggregation and attachment to the dish were observed
same,proliferation of HL-60 cells,[1]; after 3 hours,stopped proliferating
same,morphological changes,[1]; after 48 h,there were morphological changes
same,mitogenic activity,[2],powerful mitogen in cell cultures
same,rate of inhibition of tumor growth,[3]; i.p. 50 μg/kg/d for 8 days,40.0%
same,rate of inhibition of tumor growth,[3]; i.p. 100 μg/kg/d for 8 days,59.4%
same,rate of inhibition of tumor growth,[3]; i.p. 200 μg/kg/d for 8 days,32.1%
same,tumor cell differentiation (pathological studies),[4]; after TPA treatment,the tumor cells were differentiated
same,inhibition of tumor growth,[4]; i.p. 50 μg/kg daily for 7 days,41.7%
same,inhibition of tumor growth,[4]; i.p. 100 μg/kg daily for 7 days,54.8%
same,inhibition of tumor growth,[4]; i.p. 200 μg/kg daily for 7 days,30.4%
same,inhibition of tumor growth,"[4]; locally at tumor site, 50 μg/kg daily for 7 days",35.5%
same,inhibition of tumor growth,"[4]; locally at tumor site, 100 μg/kg daily for 7 days",49.3%
same,inhibition of tumor growth,"[4]; locally at tumor site, 200 μg/kg daily for 7 days",59.2%
same,mouse skin cancer promotion,[5]; Chemsyn product brochure,extremely potent mouse skin cancer promoter
same,tumor promotion,"[5]; Merck Index, 11th Edition",co-carcinogen or tumor promoter
